Test results: US20240109941A1 (University of California, published 2024)
Like-named read-outs stand apart in the source and are kept apart here.

Columns and labels:
[1] = system: defense marker genes, including PR2, PAL, and CHI; format: in vivo; settings: 10 μM spray, Carrizo seedlings
Liberibacter crescens = format: cell-based; settings: Liberibacter crescens 10^6/mL; for anti-bacterial activity (viability staining, confocal microscopy): 30 μM, 2 hours
[2] = target: the molecule itself; test: native PAGE, self-association
B. thuringiensis = format: cell-based; settings: compared to L. crescens; concentrations shown in FIG. 5
E. coli = format: cell-based; settings: compared to L. crescens; concentrations shown in FIG. 5

SHVEYANLFLANLEKVLVIDYK [CghSAMPa helix 2, polypeptide containing CghSAMPa helix 2]
induction of defense response (PR2, PAL, CHI expression normalized to Ubiquitin) ([1]; 1 day post-treatment): induced a defense response
duration of defense gene induction ([1]; time course up to 7 days post treatment): maintained for the 7-day time period
anti-bacterial activity (viability staining, confocal microscopy) (Liberibacter crescens): plays an important role in anti-bacterial activity
anti-bacterial activity (viability staining, confocal microscopy) (Liberibacter crescens; listed as helix 2): found to be a functional SAMP
anti-bacterial activity compared to full length CghSAMPa (viability staining) (Liberibacter crescens; 5 hours, same concentration or triple dosages of helix 2 vs full length): retained much of the anti-bacterial activity of full length SAMP

B1: CghSAMPa (full length stable antimicrobial peptide) (peptide)
chain: MCCNRGKNVSIENLHQGFTHIFESTFESTEGVAEYVSHPSHVEYANLFLANLEKVLVIDYKPTTVRV
notes: In the native gel it ran as polymers, 'likely hexamers based on the molecular weight'; also called MaSSAMP; Syd72SSAMP1
binding result [2]: binds
tolerance of B. thuringiensis to SAMP treatment (B. thuringiensis): highly tolerant
tolerance of E. coli to SAMP treatment (E. coli): more tolerant of SAMP treatment compared to L. crescens

B2: CghSAMPa helix 2 (peptide)
peptide: SHVEYANLFLANLEKVLVIDYK
notes: 22-residue fragment of CghSAMPa holding only the second alpha-helix; In the native gel it ran as polymers, likely hexamers; also called MaSSAMP-helix2; SAMP-helix 2
binding result [2]: binds
